Assay results as given in ChEMBL document CHEMBL1129670, “Synthesis and structure-activity relationships of N-propyl-N-(4-pyridinyl)-1H-indol-1-amine (besipirdine) and related analogs as potential therapeutic agents for Alzheimer's disease” (J Med Chem, 1996).
pIC50: −log10 of the molar value.

Columns and labels:
Mus musculus [1] = species on record: Mus musculus; assay: Antagonistic activity against Scopolamine induced behavioral deficits in mice; 0/3; assay type: functional
[2] = biological target: Muscarinic acetylcholine receptor; assay type: cell membranes, Membrane
Description: Inhibition of [3H]quinuclidinyl benzilate (QNB) binding from rat forebrain membranes in the absence of Zn

[3] = biological target: Muscarinic acetylcholine receptor; assay type: cell membranes, Membrane; remark: listed apart in the source
Description: Inhibition of [3H]quinuclidinyl benzilate (QNB) binding from rat forebrain membranes in the presence of Zn

Acetylcholinesterase = biological target: T1, Acetylcholinesterase (Rattus norvegicus, UniProt P37136)
T1 sequence (P37136 whole entry): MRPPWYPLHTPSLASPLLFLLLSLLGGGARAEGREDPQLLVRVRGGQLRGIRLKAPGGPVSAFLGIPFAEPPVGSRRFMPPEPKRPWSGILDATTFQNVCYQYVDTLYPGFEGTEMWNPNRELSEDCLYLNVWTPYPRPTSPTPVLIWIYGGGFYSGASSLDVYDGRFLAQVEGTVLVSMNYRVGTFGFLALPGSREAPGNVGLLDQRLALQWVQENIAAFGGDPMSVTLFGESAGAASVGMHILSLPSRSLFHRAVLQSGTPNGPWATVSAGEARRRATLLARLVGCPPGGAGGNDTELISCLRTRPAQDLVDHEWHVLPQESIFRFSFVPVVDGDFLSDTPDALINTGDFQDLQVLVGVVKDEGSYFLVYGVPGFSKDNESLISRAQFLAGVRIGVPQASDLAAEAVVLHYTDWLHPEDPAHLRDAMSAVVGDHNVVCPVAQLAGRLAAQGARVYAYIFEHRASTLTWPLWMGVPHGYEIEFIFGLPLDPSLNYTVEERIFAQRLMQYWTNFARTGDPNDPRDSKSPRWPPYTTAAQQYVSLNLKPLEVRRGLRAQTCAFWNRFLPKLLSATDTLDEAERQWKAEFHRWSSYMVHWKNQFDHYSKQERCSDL
Description: Inhibitory activity against acetylcholinesterase in rat striatal preparation

[4] = biological target: Sodium-dependent noradrenaline transporter (Homo sapiens, UniProt P23975)
Description: Inhibitory activity against norepinephrine (NE) uptake in rat whole brain synaptosome preparation

Mus musculus [5] = species on record: Mus musculus; assay: animal or person
Description: Effective dose against administration in mice

[6] = biological target: T2, Adrenergic receptor alpha-2 (Rattus norvegicus, UniProt P22086+P19328+P22909); assay: Inhibitory activity against [3H]clonidine binding to Alpha-2 adrenergic receptor in rat cortex
T2 sequence (P22086 whole entry): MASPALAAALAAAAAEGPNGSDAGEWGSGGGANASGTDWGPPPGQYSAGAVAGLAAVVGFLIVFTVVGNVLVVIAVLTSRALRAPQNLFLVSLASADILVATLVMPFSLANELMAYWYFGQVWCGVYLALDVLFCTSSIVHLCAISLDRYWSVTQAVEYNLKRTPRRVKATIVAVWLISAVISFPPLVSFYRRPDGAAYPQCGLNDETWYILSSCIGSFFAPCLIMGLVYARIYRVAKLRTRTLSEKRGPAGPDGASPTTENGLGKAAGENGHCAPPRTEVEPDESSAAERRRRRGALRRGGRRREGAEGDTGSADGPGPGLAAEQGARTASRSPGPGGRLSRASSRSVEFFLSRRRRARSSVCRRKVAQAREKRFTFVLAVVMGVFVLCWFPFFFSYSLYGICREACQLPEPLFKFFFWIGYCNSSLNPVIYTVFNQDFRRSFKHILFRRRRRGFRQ
T2 sequence (P19328 whole entry): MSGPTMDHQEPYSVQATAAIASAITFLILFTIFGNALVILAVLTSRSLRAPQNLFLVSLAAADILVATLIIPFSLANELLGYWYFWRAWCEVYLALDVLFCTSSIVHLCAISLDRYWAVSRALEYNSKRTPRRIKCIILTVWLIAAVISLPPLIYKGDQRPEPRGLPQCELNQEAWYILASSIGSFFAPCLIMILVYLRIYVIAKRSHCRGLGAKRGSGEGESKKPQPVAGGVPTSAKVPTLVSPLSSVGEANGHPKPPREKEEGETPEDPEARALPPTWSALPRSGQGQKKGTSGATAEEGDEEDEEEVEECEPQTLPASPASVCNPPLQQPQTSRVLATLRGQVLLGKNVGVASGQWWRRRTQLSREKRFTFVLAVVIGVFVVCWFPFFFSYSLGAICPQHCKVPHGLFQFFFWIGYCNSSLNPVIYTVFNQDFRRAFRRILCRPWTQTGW
T2 sequence (P22909 whole entry): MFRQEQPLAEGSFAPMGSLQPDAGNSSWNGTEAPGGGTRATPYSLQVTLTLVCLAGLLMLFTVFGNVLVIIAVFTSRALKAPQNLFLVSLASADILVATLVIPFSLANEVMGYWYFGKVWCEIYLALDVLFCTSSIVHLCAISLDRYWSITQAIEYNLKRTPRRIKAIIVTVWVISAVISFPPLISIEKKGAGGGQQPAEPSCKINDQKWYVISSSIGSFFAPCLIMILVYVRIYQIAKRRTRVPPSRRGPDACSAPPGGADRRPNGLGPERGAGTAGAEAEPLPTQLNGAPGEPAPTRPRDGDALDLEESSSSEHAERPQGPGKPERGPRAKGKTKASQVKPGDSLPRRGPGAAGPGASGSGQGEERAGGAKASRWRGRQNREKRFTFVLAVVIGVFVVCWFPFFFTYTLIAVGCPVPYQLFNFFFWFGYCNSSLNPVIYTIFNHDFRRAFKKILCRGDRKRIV

Mus musculus [7] = species on record: Mus musculus; assay: Antagonistic activity against Scopolamine induced behavioral deficits in mice; 5/6; assay type: functional
Mus musculus [8] = assay: Antagonistic activity against Scopolamine induced behavioral deficits in mice at dose 0.16 mg/kg sc; assay type: functional; conditions: route subcutaneous
Mus musculus [9] = assay: Antagonistic activity against Scopolamine induced behavioral deficits in mice at dose […] sc; assay type: functional; conditions: route subcutaneous
Mus musculus [10] = assay: Antagonistic activity against Scopolamine induced behavioral deficits in mice at dose 1.25 mg/kg sc; assay type: functional; conditions: route subcutaneous
Mus musculus [11] = species on record: Mus musculus; conditions: dose 2.5 mg/kg; route subcutaneous
Description: Antagonistic activity against Scopolamine induced behavioral deficits in mice at dose 2.5 mg/kg sc

Mus musculus [12] = species on record: Mus musculus; conditions: dose 5 mg/kg; route subcutaneous
[13] = biological target: T3, Adrenergic receptor alpha-1 (Rattus norvegicus, UniProt P15823+P23944+P43140); assay: Inhibitory activity against [3H]WB-4101 binding to Alpha-1 adrenergic receptor in rat whole brain membrane; assay type: cell membranes
T3 sequence (P15823 whole entry): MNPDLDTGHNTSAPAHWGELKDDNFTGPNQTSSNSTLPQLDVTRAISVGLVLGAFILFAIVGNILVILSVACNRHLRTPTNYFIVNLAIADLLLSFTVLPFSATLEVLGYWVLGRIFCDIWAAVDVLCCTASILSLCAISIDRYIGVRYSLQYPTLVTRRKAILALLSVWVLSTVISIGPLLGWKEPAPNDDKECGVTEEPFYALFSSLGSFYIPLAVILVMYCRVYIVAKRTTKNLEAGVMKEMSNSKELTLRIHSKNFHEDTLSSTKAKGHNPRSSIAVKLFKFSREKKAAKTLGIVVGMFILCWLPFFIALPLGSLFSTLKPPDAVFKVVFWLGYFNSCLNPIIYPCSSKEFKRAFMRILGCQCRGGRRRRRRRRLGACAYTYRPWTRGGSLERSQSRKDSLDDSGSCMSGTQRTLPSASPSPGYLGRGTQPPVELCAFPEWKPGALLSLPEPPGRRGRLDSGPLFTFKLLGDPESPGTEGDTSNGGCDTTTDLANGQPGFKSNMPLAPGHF
T3 sequence (P23944 whole entry): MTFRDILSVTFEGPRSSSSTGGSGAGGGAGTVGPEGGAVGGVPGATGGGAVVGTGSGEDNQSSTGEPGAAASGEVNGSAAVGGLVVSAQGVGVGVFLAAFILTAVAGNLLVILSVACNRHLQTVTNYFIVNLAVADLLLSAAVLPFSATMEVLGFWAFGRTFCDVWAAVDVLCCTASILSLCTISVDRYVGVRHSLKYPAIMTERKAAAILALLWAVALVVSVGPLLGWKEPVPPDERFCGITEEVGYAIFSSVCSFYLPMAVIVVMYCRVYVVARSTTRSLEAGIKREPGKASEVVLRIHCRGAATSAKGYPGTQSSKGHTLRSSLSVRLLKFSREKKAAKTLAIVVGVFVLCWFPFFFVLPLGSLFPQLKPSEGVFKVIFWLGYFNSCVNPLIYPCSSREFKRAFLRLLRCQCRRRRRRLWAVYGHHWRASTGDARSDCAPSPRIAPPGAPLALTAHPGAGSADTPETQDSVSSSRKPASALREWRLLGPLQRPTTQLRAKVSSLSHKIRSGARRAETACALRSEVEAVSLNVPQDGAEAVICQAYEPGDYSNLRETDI
T3 sequence (P43140 whole entry): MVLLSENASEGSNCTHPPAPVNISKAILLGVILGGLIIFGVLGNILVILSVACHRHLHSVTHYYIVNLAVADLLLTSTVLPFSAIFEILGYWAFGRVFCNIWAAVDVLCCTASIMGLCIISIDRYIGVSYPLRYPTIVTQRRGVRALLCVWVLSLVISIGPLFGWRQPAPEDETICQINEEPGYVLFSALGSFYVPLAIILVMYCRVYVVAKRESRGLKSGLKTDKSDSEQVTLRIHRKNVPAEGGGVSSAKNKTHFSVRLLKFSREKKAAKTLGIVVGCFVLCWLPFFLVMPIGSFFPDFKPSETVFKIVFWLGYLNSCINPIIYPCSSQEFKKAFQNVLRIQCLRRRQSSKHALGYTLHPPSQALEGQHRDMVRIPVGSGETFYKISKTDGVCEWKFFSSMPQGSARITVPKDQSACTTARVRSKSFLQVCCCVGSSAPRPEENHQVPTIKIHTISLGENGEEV

Mus musculus [14] = species on record: Mus musculus; assay: Antagonistic activity against Scopolamine induced behavioral deficits in mice; 1/6; assay type: functional
Mus musculus [15] = species on record: Mus musculus; conditions: dose 0.63 mg/kg; route subcutaneous
Mus musculus [16] = species on record: Mus musculus; assay: Antagonistic activity against Scopolamine induced behavioral deficits in mice; 4/6; assay type: functional
Mus musculus [17] = assay: Antagonistic activity against Scopolamine induced behavioral deficits in mice at dose 0.63 mg/kg sc; assay type: functional; conditions: route subcutaneous
Mus musculus [18] = assay: Antagonistic activity against Scopolamine induced behavioral deficits in mice at dose 5.0 mg/kg sc; assay type: functional; conditions: route subcutaneous

Sequence of Sodium-dependent noradrenaline transporter (P23975 whole entry): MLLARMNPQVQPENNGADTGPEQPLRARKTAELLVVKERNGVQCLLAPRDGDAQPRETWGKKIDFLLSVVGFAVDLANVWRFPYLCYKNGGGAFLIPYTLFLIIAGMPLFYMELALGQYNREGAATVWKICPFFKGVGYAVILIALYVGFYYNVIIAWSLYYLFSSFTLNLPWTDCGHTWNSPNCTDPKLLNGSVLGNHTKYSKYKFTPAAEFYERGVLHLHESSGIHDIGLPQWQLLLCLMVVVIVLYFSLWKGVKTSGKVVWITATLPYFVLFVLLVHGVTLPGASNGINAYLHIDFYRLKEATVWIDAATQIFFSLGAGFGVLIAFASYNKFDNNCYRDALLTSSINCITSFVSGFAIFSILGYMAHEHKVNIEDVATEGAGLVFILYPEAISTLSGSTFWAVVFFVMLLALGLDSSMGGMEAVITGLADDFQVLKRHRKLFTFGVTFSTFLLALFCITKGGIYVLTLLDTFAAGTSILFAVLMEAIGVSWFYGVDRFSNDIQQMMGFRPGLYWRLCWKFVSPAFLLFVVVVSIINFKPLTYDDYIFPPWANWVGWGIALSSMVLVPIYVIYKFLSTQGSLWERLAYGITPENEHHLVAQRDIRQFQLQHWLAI

SMILES	Antagonism (Mus musculus [1])	IC50 [2]	IC50 [3]	pIC50 (Acetylcholinesterase)	pIC50 [4]	ED50 (Mus musculus [5])	IC50 [6]	Antagonism (Mus musculus [7])	Response (Mus musculus [8])	Response (Mus musculus [9])	Response (Mus musculus [10])	Response (Mus musculus [11])	Response (Mus musculus [12])	IC50 [13]	Antagonism (Mus musculus [14])	Response (Mus musculus [15])	Antagonism (Mus musculus [16])	Response (Mus musculus [17])	Response (Mus musculus [18])
Cc1cc2ccccc2n1Nc1ccncc1	0	60 µM	29 µM	< 4.00	5.44	< 10 mg/kg													
CC(C)N(c1ccncc1)n1ccc2ccccc21		6 µM	0.63 µM	< 4.00	5.64	2.9 mg/kg	> 10 µM	5	33%	60%	36%	20%	20%						
CCN(c1ccncc1)n1ccc2ccccc21		10 µM	2.4 µM	< 4.00	6.60	3.3 mg/kg	0.11 µM							3.3 µM	1	33%			
CCCN(c1ccncc1)n1ccc2cc(OC)ccc21		14 µM	4.8 µM	< 4.00	6.24	> 20 mg/kg			20%	20%							4	26%	36%
CN(c1ccncc1)n1ccc2cc([N+](=O)[O-])ccc21		29 µM	7.6 µM	< 4.00	< 4.52	> 20 mg/kg			20%		20%					20%	4		20%
CCCN(c1ccncn1)n1ccc2ccccc21		391 µM	11 µM	< 4.00	5.85	> 20 mg/kg									1				23%
CCCN(c1ccncc1)n1cc(C#N)c2ccccc21		8.6 µM	3.5 µM		6.12	9.2 mg/kg		5	40%	53%	29%							36%	27%
Clc1ccc2c(ccn2Nc2ccncc2)c1	0	42 µM	5.9 µM	< 4.00	< 4.70	> 20 mg/kg													
c1ccc2c(c1)OCC(C1=NCCN1)O2 (configuration not stated) [IDAZOXAN]					< 4.70			5		60%	47%	53%	33%			43%			
